Measurements: patent US6495523B1, “Tricyclic monosaccharide derivatives useful in treating acute ischemia-induced neurodegeneration” (Ortho McNeil-Pharmaceutical, Inc., priority 1999, dated 2002)

What was measured:
Male Long-Evans rats = test: Neurologic assessment in rat cardiac arrest (global ischemia) model; format: in vivo; conditions: conditions of Table 1
Method: Male Long-Evans rats (250 g) were obtained from Charles River Laboratories, Portage, Mich. The neurologic function and seizure susceptibility of each animal was tested according to the methods described below. The rats were housed in the experimental laboratory for at least 24 h prior to study to avoid transit stress and to ensure a 24-h fasting period. Only rats with blood glucose levels of 100 mg/dL or less at the end of fasting were used in the experiments.
General anesthesia was induced with ketamine (100 mg/kg, ip) and maintained with small fractional supplements as needed. Tracheal intubation was performed using a custom-made fiberoptic rodent laryngoscope and a 14-gauge polyethylene catheter. Needle electrodes were inserted in the scalp and thorax to monitor the EEG and ECG, respectively, while blood pressure was measured via an indwelling femoral arterial cannula. Body and brain temperatures were monitored by thermistors placed in the rectum and temporalis muscle, respectively. […]
Neurologic assessment was identical to that described for the use with this model by Wauquier et al. (Neuropharmacology 1989; 28(8):837-846). […] In addition to the neurodeficit score, the angle of inclination at which the rat could no longer cling to the inclined plane was determined. Performance was quantified as percent of preinsult baseline.

human epilepsy = conditions: adjunctive therapy or monotherapy; clinical trials; cited from earlier work

| SMILES | detrimental effect on exploratory behavior (effect in words) (Male Long-Evans rats) | ischemia-induced neurological deficit (effect in words) (Male Long-Evans rats) | efficacy in treating simple and complex partial seizures and secondarily generalized seizures (human epilepsy) |
| --- | --- | --- | --- |
| CC1(C)O[C@H]2[C@@H]3OS(=O)(=O)O[C@@H]3CO[C@@]2(COS(N)(=O)=O)O1 [RWJ-37947] | significantly reduced | significantly reduced | – |
| CC1(C)O[C@@H]2[C@@H](CO[C@@]3(COS(N)(=O)=O)OC(C)(C)O[C@@H]23)O1 [topiramate, 2,3:4,5-bis-O-(1-methylethylidene)-β-D-fructopyranose sulfamate] | – | – | effective |
